Source: patent US7674456B2, “Breast cancer cell lines and uses thereof” (priority 2004, dated 2010)

Tested on: tumor cells from right chest wall lesion (mammary carcinoma cells)
Assay: Ex vivo drug response testing of fresh tumor specimen (DISC, MTT and redox assays)
Assay type: cell-based, human
Design: key to ASSAY RESULT: Sensitive: the drug inhibits the cell growth or proliferation of the cell to a greater degree than is expected for an appropriate control; Resistant: the drug inhibits the cell growth or proliferation of the cell to a lesser degree than is expected for an appropriate control
Settings: for ASSAY RESULT: fresh tumor cells, compared with a database of assays of similar technical characteristics; for activity in vitro (in words): summary of the table
Description: An unfixed portion of the tumor was further analyzed for response to several drugs. A specimen consisted of 1 piece of yellow, white, and red tissue, obtained from the right chest wall lesion. The piece was soft and sticky in texture, measured 0.8×1.4 cm, and weighed 0.47 gm. The specimen was minced to individual pieces smaller than one mm with surgical scissors and digested for 1.3 hours with collagenase-DNAse. Viable tumor cells were enriched by Ficoll-diatriozate centrifugation. Cytospin slides were prepared, air-dried, and stained with Fast Green/Hamatoxyline-eosin. On this cytology preparation obtained from mechanically-dissociated, enzyme-digested tissue, there was a collection of somewhat pleomorphic tumor cells, consistent with mammary carcinoma cells. Tumor cells were present as loose cell clusters (60% of total tumor cells) and, less commonly, as discohesive single cells (40% of total tumor cells). The tumor cells measured 22-25 microns in diameter and had N/N+C ratios of 0.6-0.8. […] Nucleoli were variably prominent. There were no cells with large clear globular areas or secretory material within the cytoplasm. There was slight cytoplasmic and nuclear molding. Approximately 40% of the enriched tumor cell fraction consisted of normal-appearing connective tissue cells and inflammatory cells.
Cells were plated for testing in 3 different assay endpoints. In the DISC assay, the entire contents of the cell culture were cytocentrifuged onto permanent microscope slides and differentially stained to allow discrimination of normal and neoplastic cells and living and dead cells. […] The MTT assay measures mitochondrial metabolism in the entire cell culture. The redox assay measures total metabolic activity in the entire cell culture, using the Alamar Blue reagent to index the oxygen reduction potential of the culture medium. Because of the very low yield of viable tumor cells, only a small drug panel could be tested. Additionally, some drugs could be tested only in a single assay system.
At the conclusion of the culture period, there was 10% spontaneous attrition in viable tumor cell numbers. Formazan signal in the MTT assay was moderate, reflective of moderate cell metabolism, and allowing for an MTT assay of good quality. Percentage of tumor cells as a percentage of total viable cells at the conclusion of the culture was approximately 85. DISC and MTT assays were in reasonably good agreement. The overall technical quality of the assays was good, marred only by the low yield of tumor cells, which severely limited the scope of testing.
Results were compared with a database of assays which had similar technical characteristics, as the technical characteristics of these assays influence the in vitro results, along with the intrinsic drug resistance of the tumor cells. By controlling for technical characteristics such as spontaneous cell loss, metabolic signal at the conclusion of the culture, and tumor cell clustering, biological correlations are improved.

Compound | ASSAY RESULT | activity in vitro (in words) | activity in vitro (in words) (listed as paclitaxel (Taxol))
N.N.O=C([O-])C1(C(=O)[O-])CCC1.[Pt+2] [Carboplatin] | Resistant | poor activity | 
O=P1(N(CCCl)CCCl)NC(OO)CCO1 (centres unmarked) [Cyclophosphamide (4HC)] | Sensitive | above-average activity | 
COc1cccc2c1C(=O)c1c(O)c3c(c(O)c1C2=O)C[C@@](O)(C(=O)CO)C[C@@H]3O[C@H]1C[C@H](N)[C@H](O)[C@H](C)O1 [Doxorubicin] | Intermediate |  | 
COc1cc([C@@H]2c3cc4c(cc3[C@@H](O[C@@H]3O[C@@H]5CO[C@@H](C)O[C@H]5[C@H](O)[C@H]3O)[C@H]3COC(=O)[C@H]23)OCO4)cc(OC)c1O [Etoposide] | Sensitive | above-average activity | 
O=c1[nH]cc(F)c(=O)[nH]1 [Fluorouracil] | Intermediate |  | 
O=C1c2c(O)ccc(O)c2C(=O)c2c(NCCNCCO)ccc(NCCNCCO)c21 [Mitoxantrone] | Intermediate |  | 
CC(=O)O[C@H]1C(=O)[C@@]2(C)[C@H]([C@H](OC(=O)c3ccccc3)[C@]3(O)C[C@H](OC(=O)[C@H](O)[C@@H](NC(=O)c4ccccc4)c4ccccc4)C(C)=C1C3(C)C)[C@]1(OC(C)=O)CO[C@@H]1C[C@@H]2O [Taxol (Paclitaxel), Paclitaxel] | Sensitive | best drug in vitro | above-average activity
CCC1=C[C@@H]2CN(C1)Cc1c([nH]c3ccccc13)[C@@](C(=O)OC)(c1cc3c(cc1OC)N(C)[C@H]1[C@@](O)(C(=O)OC)[C@H](OC(C)=O)[C@]4(CC)C=CCN5CC[C@]31[C@@H]54)C2 [Vinorelbine (Navelbine), Vinorelbine] | Intermediate |  | 
Gemcitabine + Cisplatin | Intermediate |  | 
